Data taken from BindingDB's records for doi:10.1021/jm00126a011 (Pfizer, 1989).

molecular target: T1, Aldo-keto reductase family 1 member B1 (Homo sapiens, UniProt P15121); experiment: ChEBML_157077
Source text: Inhibition of human placental aldose reductase (HPAR) activity with glyceraldehyde as substrate

Compound | IC50 [nM]
CS(=O)(=O)c1ccc(F)cc1-c1[nH]c(=O)[nH]c1O | 610
Cc1cc(Cl)cc(-c2[nH]c(=O)[nH]c2O)c1S(C)(=O)=O | 270
CS(=O)(=O)c1c(-c2[nH]c(=O)[nH]c2O)cc(Cl)cc1C(F)(F)F | 580
O=c1[nH]c(O)c(-c2cc(Cl)ccc2S(=O)(=O)Cc2ccc(Cl)cc2)[nH]1 | 270
CCCNS(=O)(=O)c1ccc(Cl)cc1-c1[nH]c(=O)[nH]c1O | 580
CS(=O)(=O)c1c(Cl)cc(Cl)cc1-c1[nH]c(=O)[nH]c1O | 610

More lines, now with the values ahead:

IC50 [nM] | Compound
250 | CCCS(=O)(=O)c1ccc(Cl)cc1-c1[nH]c(=O)[nH]c1O
230 | CCCCCCS(=O)(=O)c1ccc(Cl)cc1-c1[nH]c(=O)[nH]c1O
230 | O=c1[nH]c(O)c(-c2cc(Cl)ccc2S(=O)(=O)Nc2ccc(F)cc2)[nH]1
50 | CCCCCS(=O)(=O)c1ccc(Cl)cc1-c1[nH]c(=O)[nH]c1O

molecular target: T1, Aldo-keto reductase family 1 member B1; experiment: Compound was evaluated for inhibition of human placental aldose reductase (HPAR) activity with glyceraldehyde as substrate

IC50 [nM] | Compound
250 | C[S+]([O-])c1ccc(Cl)cc1-c1[nH]c(=O)[nH]c1O (configuration not stated)
50 | CS(=O)(=O)c1ccc(Cl)cc1-c1[nH]c(=O)[nH]c1O
